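Each compound was tested at five concentrations against cells in 96-well plates for 48 hours. The concentration for 50% growth inhibition is given as GI50. TGI marks complete inhibition of growth.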
How the values were obtained:
Assay in all cases: growth of human tumour cells (NCI), 48 h
[1] = test system: MOLT-4 leukemia
[2] = test system: OVCAR-4 ovarian
[3] = test system: HCC-2998 colon
[4] = test system: MALME-3M melanoma
[5] = test system: SK-MEL-2 melanoma
[6] = test system: NCI/ADR-RES ovarian
[7] = test system: U251 CNS
[8] = test system: HT29 colon
[9] = test system: SN12C renal
[10] = test system: HS 578T breast

Compound	GI50 [1]	TGI [1]	GI50 [2]	TGI [2]	GI50 [3]	TGI [3]	GI50 [4]	TGI [4]	GI50 [5]	TGI [5]	GI50 [6]	TGI [6]	GI50 [7]	TGI [7]	GI50 [8]	TGI [8]	TGI [9]	TGI [10]
CCCCN(CCCC)Cc1cc(Nc2ccnc3cc(Cl)ccc23)ccc1O	37.5 µM	> 100 µM	> 100 µM	> 100 µM	42.4 µM	> 100 µM	24.5 µM	> 100 µM	45.1 µM	> 100 µM	4.38 µM	> 100 µM	7.82 µM	> 100 µM	0.491 µM	> 100 µM		
C=CCC1(C#N)C(=S)NC2=C(C(=O)CC(C)(C)C2)C1c1ccccc1 (configuration not stated)		> 100 µM		88.9 µM						> 100 µM		> 100 µM		> 100 µM		> 100 µM	> 100 µM	
CC(=O)O[C@H]1CC(C)(C)C(=C=C/C(C)=C/C=C/C=C/C=C(C)/C=C2C=C(/C=C/[C@@]34O[C@]3(C)C[C@@H](O)CC4(C)C)C(=O)O/2)[C@](C)(O)C1		24.1 µM		> 100 µM		> 100 µM		41.9 µM		17.6 µM		34.5 µM		> 100 µM		> 100 µM	35.8 µM	
Cc1ccc(C)c(NC(=O)C(=O)C(C(=O)c2ccc3ccccc3c2)C2OC(=O)c3ccccc32)c1 (configuration not stated)		> 100 µM		> 100 µM		28.7 µM				44.7 µM				16.2 µM		> 100 µM	39.8 µM	
COC(=O)C1(NC(=O)C(CC(=O)OCc2ccccc2)NC(=O)OCc2ccccc2)CCCCCC1 (configuration not stated)		> 100 µM		43.8 µM				> 100 µM				82.5 µM		> 100 µM		50.7 µM		> 100 µM
CC(=O)Nc1ccc2c(C)c3c(nc2n1)[nH]c1ccccc13		53.6 µM		> 100 µM		76.1 µM				55.5 µM		62.1 µM		> 100 µM		> 100 µM	> 100 µM	70 µM
Cc1cc(C)nc(NS(=O)(=O)c2ccc(NC(=O)c3c4ccccc4nc4ccccc34)cc2)n1		> 100 µM		> 100 µM		> 100 µM		> 100 µM		> 100 µM		> 100 µM		> 100 µM		> 100 µM	> 100 µM	
Nc1n(CC(=O)c2ccccc2)nc2sc(-c3ccccc3)n[n+]12		> 100 µM		> 100 µM		25 µM				> 100 µM		> 100 µM		34.2 µM		51.3 µM	> 100 µM	> 100 µM
O=S1(=O)c2ccccc2Oc2ccc(C(/C=N/O)=N/O)cc21		> 100 µM		> 100 µM				25.7 µM		70.7 µM		53.9 µM		> 100 µM		> 100 µM	> 100 µM	
O=C1[C@H](O)[C@@H]2C(O)O[C@H]3[C@@H]2N1C[C@H]3[Si](c1ccccc1)(c1ccccc1)c1ccccc1 (some centres not stated)		> 100 µM		> 100 µM		> 100 µM				> 100 µM		> 100 µM		> 100 µM		> 100 µM		
C1=C(c2ccccc2)SC(N2CCCCC2)S1 (configuration not stated)		> 100 µM		> 100 µM				> 100 µM		> 100 µM				> 100 µM		> 100 µM	> 100 µM	
CCOC(=O)c1c(C)n(Cc2ccc(Cl)cc2Cl)c2c1cc(O)c1[nH]c3c(c12)CCCC3		29.4 µM		41.7 µM		63 µM		43.2 µM		60.9 µM		43.4 µM		> 100 µM		68.2 µM	58.6 µM	
COc1cc2c(c(O)c1O)C(=O)C1CCC(=O)N1C2c1cccc2ccccc12 (configuration not stated)		> 50 µM		> 50 µM						> 50 µM		> 50 µM		> 50 µM		> 50 µM	> 50 µM	> 50 µM
c1ncn(C23C4C5C6C4C2C6C53)n1 (configuration not stated)		> 100 µM				> 100 µM				> 100 µM		> 100 µM		> 100 µM		> 100 µM	> 100 µM	> 100 µM
O=c1[nH]cc(NCCCl)c(=O)[nH]1		> 100 µM		> 100 µM		> 100 µM		> 100 µM		> 100 µM		> 100 µM		> 100 µM		> 100 µM	> 100 µM	
O=C(O)CCc1nc2c(n1-c1ccccc1)C(=O)c1ccccc1C2=O		> 100 µM		> 100 µM		> 100 µM				> 100 µM		> 100 µM		> 100 µM		> 100 µM	> 100 µM	> 100 µM
Cn1c(=O)c2[nH]c(N/N=N/c3nncs3)nc2n(C)c1=O		> 100 µM		> 100 µM		> 100 µM				> 100 µM		> 100 µM		> 100 µM		> 100 µM	> 100 µM	> 100 µM
